The source of these data is ChEMBL document CHEMBL1201862, “PubChem BioAssay data set” (2004).

Among the test systems are A549; CAKI-1; COLO 205; HCT-15; HOP-62; HOP-92; KM12; NCI-H23; NCI-H460; NCI-H522; OVCAR-3; OVCAR-5; SF-295; SK-MEL-5; SK-OV-3; SN12C; SNB-75; SF-268; UACC-62; HCC 2998.
Holding throughout (test): growth of human tumour cells (NCI), 48 h

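Briefly, cells in 96-well plates were exposed to five compound concentrations for 48 h, and endpoints were estimated by linear interpolation. Here, GI50 denotes the concentration required for 50% inhibition of growth.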 Active and inactive are the calls of the source. Rule as the data show it: active = GI50 up to about 1.1 µM and inactive = higher. Some results are limits rather than exact numbers.

Take `c1ccc(NN/N=N/c2ccc(-c3nc4ccccc4[nH]3)cc2)cc1`: the GI50 is 37 µM (inactive) with A549; 30.1 µM (inactive) in the assay on CAKI-1; 23.1 µM (inactive) in the assay with COLO 205; 13 µM in the assay with HCT-15; 41.3 µM (inactive) in the assay on HOP-62; 60.7 µM (inactive) in the assay on HOP-92. Moreover, the GI50 with KM12 is 19.5 µM (inactive); in the assay with NCI-H23 it was 32.5 µM (inactive); in the assay with NCI-H460 it was 27 µM (inactive); in the assay with NCI-H522, 24.7 µM (inactive); in the assay with OVCAR-3, 15.6 µM (inactive); with OVCAR-5, > 100 µM (inactive). Moreover, the GI50 in the assay with SF-295 was 25.6 µM (inactive); in the assay with SK-MEL-5, 29 µM (inactive); with SK-OV-3, > 100 µM (inactive); in the assay on SN12C, 32.2 µM (inactive); in the assay on SNB-75, 23.8 µM (inactive).
Regarding `COC(=O)C(Cc1c[nH]c2ccccc12)NP(=O)(O)OCC1OC(n2ccc(N)nc2=O)C(O)C1O` (stereo not drawn), the GI50 in the assay with A549 is > 100 µM (inactive); in the assay on CAKI-1, > 100 µM (inactive); with COLO 205, > 100 µM (inactive); in the assay on HCT-15, greater than 100 µM; in the assay on HOP-62, > 100 µM (inactive); in the assay on HOP-92, > 100 µM (inactive). Moreover, the GI50 in the assay with KM12, in the assay with NCI-H23, in the assay with NCI-H460, with NCI-H522, in the assay on OVCAR-3 and in the assay on OVCAR-5 was > 100 µM (inactive) in each case. Besides, the GI50 is > 100 µM (inactive) in the assay on SF-268; > 100 µM (inactive) with SF-295; > 100 µM (inactive) in the assay with SK-MEL-5; > 100 µM (inactive) in the assay with SN12C; > 100 µM (inactive) with SNB-75; 85.9 µM (inactive) in the assay on UACC-62.
`c1ccc(CSC2(SCc3ccccc3)CCCC2)cc1`: the GI50 with A549 was > 10 µM (inactive); in the assay on CAKI-1 it was > 10 µM (inactive); in the assay with COLO 205 it was > 10 µM (inactive); in the assay with HCC 2998, > 10 µM (inactive); with HCT-15, greater than 10 µM; in the assay with HOP-62 it was > 10 µM (inactive). Moreover, the GI50 with KM12, in the assay with NCI-H23, in the assay on NCI-H460, in the assay with NCI-H522, in the assay on OVCAR-3 and with OVCAR-5 was > 10 µM (inactive) throughout. Moreover, the GI50 in the assay on SF-268, in the assay with SF-295, with SK-MEL-5, in the assay with SK-OV-3, in the assay with SN12C and in the assay with SNB-75 was > 10 µM (inactive) each time. Besides, the GI50 with UACC-62 was > 10 µM (inactive).
For the compound `CC(=O)OC(OC(C)=O)n1cc(C=O)c2ccccc21`, the GI50 with A549 was > 100 µM (inactive); in the assay with CAKI-1 it was > 100 µM (inactive); in the assay on COLO 205, > 100 µM (inactive); in the assay with HCC 2998 it was > 100 µM (inactive); in the assay on HCT-15 it was greater than 100 µM; in the assay on HOP-62, > 100 µM (inactive). Further, the GI50 in the assay on NCI-H23, in the assay with NCI-H460, with NCI-H522, in the assay with OVCAR-3, with OVCAR-5 and in the assay with SF-295 was > 100 µM (inactive) each time. Further, the GI50 in the assay with SK-MEL-5 is > 100 µM (inactive); in the assay with SK-OV-3, > 100 µM (inactive); in the assay with SN12C, > 100 µM (inactive); with SNB-75, > 10 µM (inactive).
As for `COc1cc(C2C(C(=O)O)=C(CO)Oc3cc4c(cc32)OCO4)cc(OC)c1O` (stereo not drawn), the GI50 with A549 was > 100 µM (inactive); in the assay on CAKI-1 it was > 100 µM (inactive); in the assay with COLO 205 it was > 100 µM (inactive); in the assay with HCT-15, greater than 100 µM; in the assay on HOP-62, > 100 µM (inactive); in the assay with HOP-92, > 100 µM (inactive). Further, the GI50 in the assay with NCI-H460, with OVCAR-3, with SF-295, in the assay with SK-MEL-5, with SK-OV-3 and in the assay on SN12C was > 100 µM (inactive) in each case. Also, the GI50 in the assay with SNB-75 and with UACC-62 was > 100 µM (inactive) each time.
Turning to `COc1nc(SC)nc2c1cnn2C1OC(C(O)CO)C(OC)C1O` (stereo not drawn), the GI50 in the assay with A549 was 52.1 µM (inactive); in the assay on COLO 205 it was > 74.5 µM (inactive); in the assay on HCC 2998, > 100 µM (inactive); in the assay with HCT-15, greater than 83 µM; with HOP-62, > 100 µM (inactive); with KM12, > 78.9 µM (inactive). Also, the GI50 in the assay on NCI-H23 was > 100 µM (inactive); with NCI-H460, 74.6 µM (inactive); in the assay with NCI-H522, > 100 µM (inactive); in the assay with OVCAR-3 it was 99.3 µM (inactive); with OVCAR-5, > 100 µM (inactive); with SF-268, > 92.7 µM (inactive). Also, the GI50 in the assay on SF-295 is > 100 µM (inactive); in the assay with SK-MEL-5 it was > 100 µM (inactive); in the assay with SK-OV-3, > 100 µM (inactive); with SN12C, > 100 µM (inactive); in the assay with SNB-75, 48.4 µM (inactive); in the assay with UACC-62 it was > 65.6 µM (inactive).
`CC1(C)OP23(NC(=O)OC2(C(F)(F)F)c2ccccc2O3)OC1(C)C` (stereo not drawn): the GI50 in the assay on A549 was > 100 µM (inactive); with HCT-15 it was greater than 100 µM; in the assay on KM12 it was > 100 µM (inactive); in the assay on NCI-H23, > 100 µM (inactive); in the assay on NCI-H460, > 100 µM (inactive); in the assay on NCI-H522, > 100 µM (inactive). The GI50 in the assay on OVCAR-3, in the assay with SF-268, in the assay on SF-295, in the assay on SK-MEL-5, with SK-OV-3 and with SN12C was > 100 µM (inactive) in each case. The GI50 in the assay on SNB-75 and in the assay on UACC-62 was > 100 µM (inactive) throughout.
Take `N#Cc1c(=O)c2cccnc2n2c1[nH]c1ccccc12`: the GI50 is > 100 µM (inactive) in the assay on A549; > 100 µM (inactive) in the assay with CAKI-1; > 100 µM (inactive) in the assay on COLO 205; > 100 µM (inactive) with HCC 2998; 98.2 µM with HCT-15; 41.4 µM (inactive) with HOP-62. In addition, the GI50 is 22.6 µM (inactive) in the assay with HOP-92; 80.7 µM (inactive) with KM12; 38.7 µM (inactive) with NCI-H23; 69.2 µM (inactive) in the assay on NCI-H460; 78 µM (inactive) with OVCAR-3; > 100 µM (inactive) with OVCAR-5. Further, the GI50 was 49.1 µM (inactive) in the assay with SF-268; 49.3 µM (inactive) in the assay with SF-295; 52.8 µM (inactive) in the assay with SK-OV-3; > 100 µM (inactive) in the assay with SN12C; 50.5 µM (inactive) in the assay with SNB-75; > 100 µM (inactive) with UACC-62.
In the case of `c1ccc(C(NC2=NCCO2)c2ccccc2)cc1`, the GI50 was > 10 µM (inactive) in the assay with A549; > 10 µM (inactive) in the assay on CAKI-1; > 10 µM (inactive) in the assay on COLO 205; > 10 µM (inactive) with HCC 2998; greater than 10 µM with HCT-15; > 10 µM (inactive) with HOP-62. The GI50 with KM12, with NCI-H23, in the assay on NCI-H460, with NCI-H522, in the assay with OVCAR-3 and in the assay on OVCAR-5 was > 10 µM (inactive) in each case. Also, the GI50 was > 10 µM (inactive) with SF-268; 9.33 µM (inactive) in the assay on SF-295; > 10 µM (inactive) with SK-MEL-5; > 10 µM (inactive) with SK-OV-3; > 10 µM (inactive) with SN12C; > 10 µM (inactive) with SNB-75. In addition, in the assay on UACC-62, the GI50 is > 10 µM (inactive).
